Experimental data taken from patent US6355799B1, “Substituted benzene compounds, process for their preparation, and herbicidal and defoliant compositions containing them” (ISK Americas Incorporated, priority 1997, dated 2002).

Key:
Assay type in all cases: in vivo
[1] = tested on: upland rice (Oryza sp., var. Tebonnet, RICE); test: Post-emerge test, crop safety; conditions: post-emerge, 14 days after application, rating scale 0-100
In short: (§1)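 Rating: 0–100 visual injury, 14 DAA. Application: acetone, 187 l/ha, 15–1000 g ai/ha, flat-fan track sprayer with nozzle 40–45 cm above soil or canopy. Post-emerge runs used 0.25% v/v surfactant on 2–3 leaf plants.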

[2] = tested on: field corn (Zea mays L., var. Dekalb 535, CORN); test: Post-emerge test, crop safety; conditions: post-emerge, 14 days after application, rating scale 0-100
In short: as §1

[3] = tested on: redroot pigweed (Amaranthus retroflexus, AMARE); test: Pre-emerge test, greenhouse herbicide activity screening; conditions: pre-emerge, 14 days after application, scale 0-100
In short: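 Sandy loam pots; pre-emerge: sown 1 d pre-spray, surface-watered after, then bottom-watered. Post-emerge: sown 8–21 d before, 2–3 leaf stage, + 0.25% v/v NIS, bottom-watered. Acetone, 187 l/ha track spray, 15–1000 g ai/ha. 0–100 injury score, day 14.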

[4] = tested on: upland rice (Oryza sp., var. Tebonnet, RICE); test: Pre-emerge test, crop safety; conditions: pre-emerge, 14 days after application, scale 0-100
In short: (§2)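 Fourteen days after spraying, crop and weed injury was graded visually from 0, no effect, to 100, every plant dead. Test substances were dissolved in acetone and applied at 15–1000 g ai/ha with a flat-fan nozzle. Application was either pre-emergence, one day after sowing, or post-emergence at the 2–3 leaf stage.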

[5] = tested on: field corn (Zea mays L., var. Dekalb 535, CORN); test: Pre-emerge test, crop safety; conditions: pre-emerge, 14 days after application, scale 0-100
In short: as §2

[6] = tested on: ivyleaf morningglory (Ipomoea hederacea, IPOHE); test: Pre-emerge test, greenhouse herbicide activity screening; conditions: pre-emerge, 14 days after application, scale 0-100
In short: (§3)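 Compounds in acetone were track-sprayed at 15–1000 g ai/ha: pre-emergence onto soil sown the previous day, then top-watered to incorporate and later bottom-watered; post-emergence onto 2–3 leaf plants with 0.25% v/v surfactant, bottom-watered only. Ratings on a 0–100 phytotoxicity scale were taken at day 14.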

[7] = tested on: sicklepod (Cassia obtusifolia, CASOB); test: as above; conditions: pre-emerge, 14 days after application, scale 0-100
In short: as §3

[8] = tested on: lambsquarters (Chenopodium album, CHEAL); test: as above; conditions: pre-emerge, 14 days after application, scale 0-100
In short: as §3

[9] = tested on: barnyardgrass (Echinochloa crus-galli, ECHCG); test: as above; conditions: pre-emerge, 14 days after application, scale 0-100
In short: as §3

[10] = tested on: johnsongrass (Sorghum halepense, SORHA); test: as above; conditions: pre-emerge, 14 days after application, scale 0-100
In short: as §3

[11] = tested on: large crabgrass (Digitaria sanguinalis, DIGSA); test: as above; conditions: pre-emerge, 14 days after application, scale 0-100
In short: as §3

[12] = tested on: velvetleaf (Abutilon theophrasti, ABUTH); test: as above; conditions: pre-emerge, 14 days after application, scale 0-100
In short: as §3

[13] = tested on: green foxtail (Setaria viridis, SETVI); test: as above; conditions: pre-emerge, 14 days after application, scale 0-100
In short: as §3

[14] = tested on: ivyleaf morningglory (Ipomoea hederacea, IPOHE); test: Post-emerge test, greenhouse herbicide activity screening; conditions: post-emerge, 14 days after application, rating scale 0-100
In short: (§4)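 Visual ratings on a 0-100 scale (0 no damage, 100 all plants dead) were taken at 14 days after treatment. Rates of 15-1000 g ai/ha in acetone, 187 l/ha, were sprayed onto soil one day after planting (pre-emerge) or onto 2-3 leaf plants with 0.25% v/v surfactant (post-emerge).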

[15] = tested on: redroot pigweed (Amaranthus retroflexus, AMARE); test: as above; conditions: post-emerge, 14 days after application, rating scale 0-100
In short: as §4

[16] = tested on: sicklepod (Cassia obtusifolia, CASOB); test: as above; conditions: post-emerge, 14 days after application, rating scale 0-100
In short: as §4

[17] = tested on: lambsquarters (Chenopodium album, CHEAL); test: as above; conditions: post-emerge, 14 days after application, rating scale 0-100
In short: as §4

[18] = tested on: barnyardgrass (Echinochloa crus-galli, ECHCG); test: as above; conditions: post-emerge, 14 days after application, rating scale 0-100
In short: as §4

[19] = tested on: johnsongrass (Sorghum halepense, SORHA); test: as above; conditions: post-emerge, 14 days after application, rating scale 0-100
In short: as §4

[20] = tested on: large crabgrass (Digitaria sanguinalis, DIGSA); test: as above; conditions: post-emerge, 14 days after application, rating scale 0-100
In short: as §4

[21] = tested on: velvetleaf (Abutilon theophrasti, ABUTH); test: as above; conditions: post-emerge, 14 days after application, rating scale 0-100
In short: as §4

[22] = tested on: green foxtail (Setaria viridis, SETVI); test: as above; conditions: post-emerge, 14 days after application, rating scale 0-100
In short: as §4

SMILES: COc1c(Br)cc(F)c(-n2c(=O)cc(C(F)(F)F)n(C)c2=O)c1NC(=O)C=Cc1ccccc1 [2-177]
- RICE phytotoxicity rating (crop damage) ([1]; 63 g ai/ha): 50
- RICE phytotoxicity rating (crop damage) ([1]; 250 g ai/ha): 60
- CORN phytotoxicity rating (crop damage) ([2]; 63 g ai/ha): 15
- CORN phytotoxicity rating (crop damage) ([2]; 250 g ai/ha): 20
- phytotoxicity rating AMARE ([3]; 63 g ai/ha): 100
- phytotoxicity rating AMARE ([3]; 250 g ai/ha): 100
- phytotoxicity rating RICE (crop damage) ([4]; 63 g ai/ha): 10
- phytotoxicity rating RICE (crop damage) ([4]; 250 g ai/ha): 20
- phytotoxicity rating CORN (crop damage) ([5]; 63 g ai/ha): 0
- phytotoxicity rating CORN (crop damage) ([5]; 250 g ai/ha): 10
- phytotoxicity rating IPOHE ([6]; 63 g ai/ha): 40
- phytotoxicity rating IPOHE ([6]; 250 g ai/ha): 90
- phytotoxicity rating CASOB ([7]; 63 g ai/ha): 0
- phytotoxicity rating CASOB ([7]; 250 g ai/ha): 40
- phytotoxicity rating CHEAL ([8]; 63 g ai/ha): 100
- phytotoxicity rating CHEAL ([8]; 250 g ai/ha): 100
- phytotoxicity rating ECHCG ([9]; 63 g ai/ha): 0
- phytotoxicity rating ECHCG ([9]; 250 g ai/ha): 40
- phytotoxicity rating SORHA ([10]; 63 g ai/ha): 0
- phytotoxicity rating SORHA ([10]; 250 g ai/ha): 30
- phytotoxicity rating DIGSA ([11]; 63 g ai/ha): 30
- phytotoxicity rating DIGSA ([11]; 250 g ai/ha): 70
- phytotoxicity rating ABUTH ([12]; 63 g ai/ha): 70
- phytotoxicity rating ABUTH ([12]; 250 g ai/ha): 100
- phytotoxicity rating SETVI ([13]; 63 g ai/ha): 40
- phytotoxicity rating SETVI ([13]; 250 g ai/ha): 70
- IPOHE phytotoxicity rating ([14]; 63 g ai/ha): 100
- IPOHE phytotoxicity rating ([14]; 250 g ai/ha): 100
- AMARE phytotoxicity rating ([15]; 63 g ai/ha): 100
- AMARE phytotoxicity rating ([15]; 250 g ai/ha): 100
- CASOB phytotoxicity rating ([16]; 63 g ai/ha): 100
- CASOB phytotoxicity rating ([16]; 250 g ai/ha): 100
- CHEAL phytotoxicity rating ([17]; 63 g ai/ha): 100
- CHEAL phytotoxicity rating ([17]; 250 g ai/ha): 100
- ECHCG phytotoxicity rating ([18]; 63 g ai/ha): 20
- ECHCG phytotoxicity rating ([18]; 250 g ai/ha): 40
- SORHA phytotoxicity rating ([19]; 63 g ai/ha): 30
- SORHA phytotoxicity rating ([19]; 250 g ai/ha): 40
- DIGSA phytotoxicity rating ([20]; 63 g ai/ha): 30
- DIGSA phytotoxicity rating ([20]; 250 g ai/ha): 50
- ABUTH phytotoxicity rating ([21]; 63 g ai/ha): 100
- ABUTH phytotoxicity rating ([21]; 250 g ai/ha): 100
- SETVI phytotoxicity rating ([22]; 63 g ai/ha): 45
- SETVI phytotoxicity rating ([22]; 250 g ai/ha): 60
